Results on 3 compounds are retold here after patent US8906897B2, “Antimicrobial agents based on hemin derivatives” (Obschestvo S Ogranichennoi Otvetstvennostiyu …, priority 2009, dated 2014).

Data set [1] deals with Micrococcus luteus BKM Ac-2230. Nature of the data set: Antibacterial activity (MIC/MBC), serial dilutions in liquid MH medium. The data set is classed as cell-based. As to the method: (§1) The antibacterial activity of compounds was determined against Bacillus subtilis BKM B-501, Staphylococcus aureus 209P, Enterococcus faecalis BKM B-871, and Micrococcus luteus BKM Ac-2230 strains (acquired from the All-Russia Collection of Microorganisms at the Institute for Biochemistry and Physiology of Microorganisms, Russian Academy of Sciences). The main parameters characterizing the antibacterial activity are the minimal inhibitory concentration (MIC) and minimal bactericidal concentration (MBC). […] MBC is the least concentration that causes the death of all cells.
(§2) MIC was quantified by inhibiting culture growth in a liquid medium with serial dilutions of compounds using a modified procedure [Amsterdam, D., “Susceptibility Testing of Antimicrobials in Liquid Media,” in Antibiotics in Laboratory Medicine, Ed. by Lorian, V., 4th ed., Baltimore: Williams and Wilkins, 1996, pp. 52-111].
(§3) Bacteria were cultured and tests were carried out on an MH liquid medium (Mueller-Hinton medium: a dry extract of beef broth, 4 g/L; starch, 1.5 g/L; casein hydrolyzate, 17.5 g/L; Sigma-Fluka Catalog No. 70192) at 37° C., 100% humidity, and under stirring. Cultures (4th through 7th receeding post-thawing) in the exponential growth phase were used for tests.
(§4) Therefore, a correction for absorption was applied in estimating the optical density of bacterial suspensions for each compound with account for its concentration in the well.
(§5) The protocol for experimental antibacterial activity determination for tested compounds was as follows. A cryovial with the test strain culture (Bacillus subtilis BKIVI B-501, Staphylococcus aureus 209P, Enterococcus faecalis BKM B-871, or Micrococcus luteus BKIVI Ac-2230) in a medium with 7% DMSO stored in liquid nitrogen, was rapidly defrosted, and 1.5 mL of the fresh MH medium was inoculated with 100 μL of the cell suspension. Cells were grown for one day at 37° C. and stirred on an orbital shaker at 150 rpm. The morphologic features of the strain and the absence of contamination with foreign bacteria were verified by: (a) inoculation on an agarized (15 g/L agar) MH medium and observation of the shape and color of the grown colonies and (b) examination of characteristic morphologic features under a microscope (Mikmed-2, LOMO, Russia) equipped with a 40× objective lens. Further bacteria were cultured in 1 mL of the liquid MH medium at 37° C. under stirring. The cells were reseeded every day. Cell cultures were used in tests starting with 3rd reseeding and ending with 6th one.
(§6) For testing, 5 μL of a bacterial suspension in the stationary growth phase was transferred to 1 mL of a sterile MH medium and incubated until the exponential growth phase was attained (3 to 5 h, 37° C., stirring at 150 rpm). To estimate the microorganisms concentration, the optical density (A) of the resulting bacterial culture was measured at a wavelength of 595 nm. The value of A=0.2 measured from a […] portion of the cell suspension in a 96-well plate, with a correction for the medium absorption applied, was set to correspond to 4×10^8 cells/mL for both strains used. Taking into account the cell concentration measurements, the suspension was diluted with the MH medium to a concentration of from 5×10^4 to 1×10^5 cells/mL and transferred to a sterile 96-well plate in an amount of 100 μL, per well. Then, the cells were added with tested compounds and twofold serial dilutions of these compounds in plate's wells were made.
(§7) The controls used were: 100 μL of an additive-free bacterial culture (four wells); a bacterial culture added with 1% DMSO or water in the same volume as in the wells with the maximal concentration of the tested compounds (four wells); and 100 μL of the sterile MH medium without bacteria and without tested compounds for control of occasional contamination in the plate (four wells).

Data set [2] concerns Bacillus subtilis BKM B-501. The description is as above. The data set is classed as cell-based. The protocol: as §1, §2, §3, §4, §5, §6, §7
The subject of another data set is human leukocytes. In words: Cytotoxic activity against human leukocytes. Particulars: 3 h incubation. As to the method: Total leukocytes were isolated from human blood by unforced sedimentation using freshly collected venous blood from a healthy donor.
Blood (10 mL) added with 10 units/mL heparin was exposed for 2.5 h in the dark at a temperature of 15 to 18° C. A light-colored liquid supernatant (4 mL) was collected over the layer of sedimenting erythrocytes, washed three times with balanced Hanks's salt solution, and resuspended in the RPMI-1640 medium (added with 8% fetal bovine serum, 2 mM L-glutamine, and 10 mM HEPES; hereinafter, the complete medium).
The concentrations of leukocytes and erythrocytes in the suspension were determined by counts in Goryachev's chamber, after which the suspension was adjusted to a leukocyte concentration of (1.0±0.1)×10^6 cells/mL with the complete medium.
To determine the cytotoxicity of the tested compounds for human leukocytes, the cell suspension was transferred to wells of sterile 96-well plates, tested compounds were added with serial twofold dilutions (the range of tested concentrations was from 3.2 to 100 μM for GrD and gramicidin S; from 8 to 500 μM for compound XIII; and from 8 to 1000 μM for compounds V, VI, VII, VIII, IX, X, XI, XIV, XV, XIX, and Hem), and the mixture was carefully stirred. The experiment was performed in two replicas.
As controls served cells added with an equivalent amount of the solvent in which tested compounds were prepared, namely: water for compounds VII and X; an aqueous solution of DMSO for compounds V, VI, VIII, and IX; and DMSO for GrD, gramicidin S, Hem, XI, XIII, XIV, XV, and XIX. An additional control was an additive-free leukocyte suspension.
Cells were incubated with tested compounds for 3 h (37° C., 5% CO2, 100% humidity). Leukocyte death values were quantified using fluorescence microscopy. Staining with propidium iodide (it permeates only into dead cells nuclei) and Hoechst 33342 (it stains all nuclei) was used to recognize dead and living cells. Cells were incubated for 15 min in plates with propidium iodide and Hoechst 33342 (37° C., 5% CO2), and then the plates were placed under a microscope for analysis.
The dead cell fraction was derived from the fluorescence images of cells obtained in the blue (Hoechst 33342) and red (propidium iodide) spectral ranges using an Axio Observer (Zeiss, Germany) fluorescence microscope equipped with a 10× objective lens (Plan-Neofluar 10×/0.3). The following sets of fluorescence filters were used. For propidium iodide: a 530/585-nm bandpass excitation filter, a 600-nm cut-off dichroic minor, and a 615-nm longpass barrier filter for analysis. For Hoechst 33342: a 359/372-nm bandpass excitation filter, a 395-nm cut-off dichroic mirror, and a 397-nm longpass barrier filter for analysis.
A digital camera recorded three types of cell images: (a) an image in the transmitted white light; (b) a blue fluorescence image obtained with UV excitation, and (c) a red fluorescence image obtained with green light excitation. At least four fields of view were photographed per well in various regions of a well.

Data set [3] can be described thus: Solubility of tested agents (water / DMSO). Particulars: water or DMSO.
The subject of data set [4] is Staphylococcus aureus No. 100 KC. In words: Specific activity against resistant bacterial strains. It is filed as cell-based. Particulars: Staphylococcus aureus, NO.100KC, read-out: MICs for Vancomycin. As to the method: (§8) The tested agents were water-soluble hemin derivatives (compounds VII and XVIII) or DMSO-soluble derivatives (compounds VIII, XV, and XIV). Vancomycin was the reference compound. Each compound was tested in three replicas.
(§9) Sterile single-use flat-bottomed 96-well plates, Petri dishes, pipettes, tips, and test tubes (Pan-Eco, Moscow) were used in the study.
(§10) The nutritional media used were as follows. A working Mueller Hinton broth was prepared from dry media (Mueller Hinton broth, Acumedia, Baltimore) and sterilized by autoclaving at 121° C. for 15 min.
(§11) Staphylococcus aureus was cultured on the Tripticase Soy Agar (BBL) commercially available dry medium. Enterococcus faecalis was cultured on the Columbia Agar Base (BBL) commercially available dry medium. These media were sterilized by autoclaving at 121° C. for 15 min.
(§12) Bacterial inoculum was fixed and equal to 5×10^5 CFU/mL.
(§13) For water-soluble compounds, wells from 2nd through 8th were added with the solvent (water) in an amount of 15 μL per well, then the 1st well was added with 30 μL of the stock solution of the tested compound in water with a concentration of 1×10^3M, and the concentration was adjusted to 0.007×10^3 M by serial twofold dilutions. A 10-μL portion was taken from every well, and 190 μL of the bacterial culture (10^5 CFU) was added per well.
(§14) For DMSO-soluble compounds, wells from 2nd through 8th were added with the solvent (DMSO) in an amount of 10 μL per well, then the 1st well was added with 20 μL of the stock solution of the tested compound in […] with a concentration of 5×10^3M, and the concentration was adjusted to 0.039×10^3 M by serial twofold dilutions. A 2-μL portion was taken from each well, and 198 μL of the bacterial culture (10^5 CFU) was added per well.
(§15) The control comprised wells free of tested compounds (culture growth control). In addition, purity control of nutritional media and solvents was used. Plates were incubated in a thermostat at 36° C. for 24 hours.
(§16) Culture growth was evaluated visually by comparison of how microorganisms grew in the presence of tested compounds and in the absence of them. MSC (the minimal suppressing concentration) was set equal to the last dilution of a tested agent which suppressed bacterial culture growth.

The test system of data set [5] is Enterococcus faecalis No. 559. Described as above. It is filed as cell-based. As to conditions: Enterococcus faecalis, NO.559, read-out: MICs for Vancomycin. As to the method: as §8, §9, §10, §11, §12, §13, §14, §15, §16
In data set [6] the test system is Staphylococcus aureus No. 25923 ATCC. The data set is described as above. It is filed as cell-based. As to conditions: Staphylococcus aureus, NO.25923ATCC, read-out: MICs for Vancomycin. As to the method: as §8, §9, §10, §11, §12, §13, §14, §15, §16
A further data set has as its system Candida albicans No. 927. In words: Antifungal activity, culture growth with pH indicator. It is filed as cell-based. Also noted: key to Test culture growth at various dilutions of the agent: (−) No growth; the indicator is blue; (±) Weak growth; the indicator is yellow, but the precipitate of grown cells looks as a diffuse spot; (+) Strong growth; the indicator is yellow, and the cell precipitate looks as a compact spot. As to the method: The subjects of action were Cryptococcus neoformans No. 3465 museum strain cells and Candida albicans No. 927 museum strain cells grown for one day on a glucose-peptone-yeast medium at 32° C. The reference compounds were the following antimycotics: pimafucin, amphotericin, and fluconazole.
Experiments were carried out on round-bottomed 96-well plates (Lenmedpolimer) in two replicas. To the first column (0), added was 10 μL of the stock solution of a water-soluble agent with concentrations of 10^−2 to 10^−3 mol/L; to the second column, added was also the same 10 μL plus 10 μL of the solvent corresponding to the given compound, suspended, 10 μL was transferred to the next well, and so on to the 8th well of the row. Stock solutions of water-insoluble compounds of general formula (I) (compounds V, VIII, XII, XIII, XIV, and hemin) were prepared in DMSO and were diluted with DMSO and the medium. DMSO concentrations in the reaction mixture in a well were ≦5%.
Then, to every well added was 190 μL of a Cr. neoformans cell culture suspension in a synthetic nutritional medium (so that the final cell concentration was approximately 10^3 CFU/mL), this medium containing Bromocresol Blue as a pH-indicator (pH: 5.5; indicator color: blue). As pH reduced to 4.5, the indicator in the culture changed its color to yellow, thereby indicating fungal cell growth. The synthetic medium comprised the following components: salts, amino acids, microelements, vitamins, an antibiotic, and glucose (30 components altogether) [Yarrow, D., “Methods for the Isolation, Maintenance and Identification of Yeasts,” in: The Yeasts. A Taxonomic Study, Ed. by Kurtsman, C. P, and Fell, M., Elsevier, 1998, pp. 77-100]. After being inoculated with a Cr. neoformans cell suspension, the plate was incubated at 32° C. for 1 h with stirring, then transferred to a stationary thermostat and incubated for two and five days at 27° C. After being inoculated with a C. albicans cell suspension, the plates were incubated for 1 h at 32° C. with stirring, then transferred to a stationary thermostat and incubated for one and four days at 27° C.

Usually MBC stands for the lowest tested concentration that kills the bacteria rather than only halting them.

In brackets after ≈: the same amount, converted by molar mass.

On to `C=CC1=C(C)c2cc3[n-]c(cc4nc(cc5[n-]c(cc1n2)c(C)c5CCC(=O)NCC(=O)OC)C(CCC(=O)NCC(=O)OC)=C4C)c(C)c3C=C.[Cl-].[Fe+3]` [Compound XV, 6,7-Bis(N^α-Glycyl Methyl Ester)-Protohemin IX], for which the results for the MBC in data set [1] and in data set [2] were 6.5 µM and 25 ± 7 µM, respectively. Also, the MIC in data set [1] (20 h, MH medium) came out at 1.6 µM; in data set [2] (20 h, MH medium), 12.5 ± 4 µM. Further, the “Death of leukocytes in the presence of 1 mM of compound” value in the data set on human leukocytes came to 13 ± 1%. The “concentration at which a weak toxic effect on leukocytes appears” value in the data set with human leukocytes is ~1000 µM. Moreover, the “solubility (in words)” value in data set [3] is reported as “DMSO-soluble”.
Consider `CN[C@H](CC(C)C)C(=O)N[C@H]1C(=O)N[C@@H](CC(N)=O)C(=O)N[C@H]2C(=O)N[C@H]3C(=O)N[C@H](C(=O)N[C@H](C(=O)O)c4cc(O)cc(O)c4-c4cc3ccc4O)[C@H](O)c3ccc(c(Cl)c3)Oc3cc2cc(c3O[C@@H]2O[C@H](CO)[C@@H](O)[C@H](O)[C@H]2O[C@H]2C[C@](C)(N)[C@H](O)[C@H](C)O2)Oc2ccc(cc2Cl)[C@H]1O` [Vancomycin, reference compound], for which the MIC in data set [4], in data set [5] and in data set [6] was 1 mg/L (≈ 0.69 µM) throughout.
Take “Protohemin IX 6(7)-Mono[Cyclo(Orn-Leu-D-Phe-Pro-Val)2])amide [Compound XIII]”: the “Test culture growth at various dilutions of the agent” value with Candida albicans No. 927 (dilution 0: 1 × 10^−4 M) is recorded as “±”; in the data set on Candida albicans No. 927 (dilution : 2 of 1 × 10^−4 M), “±”; in the data set with Candida albicans No. 927 (dilution : 4 of 1 × 10^−4 M), “+”; in the data set on Candida albicans No. 927 (dilution : 8 of 1 × 10^−4 M), “+”; with Candida albicans No. 927 (dilution : 16 of 1 × 10^−4 M) it was “+”; in the data set with Candida albicans No. 927 (dilution : 32 of 1 × 10^−4 M), “+”. In addition, the “Test culture growth at various dilutions of the agent” value in the data set on Candida albicans No. 927 (dilution : 64 of 1 × 10^−4 M) was “+”. For the same compound, the “Death of leukocytes in the presence of 1 mM of compound” value in the data set with human leukocytes is 14 ± 2%. Moreover, in data set [3], the “solubility (in words)” value was “water-insoluble”.
